Reference: patent US7220777B2, “Lactam derivatives as antagonists for human 11cby receptors” (SmithKline Beecham P.L.C., priority 2001, dated 2007)
Where no end group is shown, it is not given here.

Key:
[1] = target: T1, 353 form of the 11CBy receptor (Homo sapiens, UniProt Q99705); test: Radioligand ([125I]-MCH) competitive binding on membranes from HEK293 cells stably expressing 11CBy receptors; conditions: [125I]-MCH 0.22 nM, 45 min 37° C., pH7.4, pKi calculated from IC50
T1 construct: expressed in transfected cells; well washed membranes
T1 sequence (Q99705 whole entry): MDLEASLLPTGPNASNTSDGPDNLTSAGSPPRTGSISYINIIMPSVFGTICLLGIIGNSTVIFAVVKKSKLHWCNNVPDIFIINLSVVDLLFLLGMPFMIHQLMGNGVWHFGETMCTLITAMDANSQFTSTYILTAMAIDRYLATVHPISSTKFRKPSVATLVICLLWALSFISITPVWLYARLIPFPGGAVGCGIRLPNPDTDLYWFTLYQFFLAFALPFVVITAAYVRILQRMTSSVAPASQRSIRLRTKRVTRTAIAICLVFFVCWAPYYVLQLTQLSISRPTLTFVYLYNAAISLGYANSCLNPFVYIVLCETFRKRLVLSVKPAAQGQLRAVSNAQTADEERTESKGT
Experimental: Membranes ([…] protein) were incubated with [^125I]-Melanin Concentrating Hormone (0.22 nM) (obtained from NEN) in the presence and absence of competing test compounds for 45 min at 37° C. in a buffer (pH7.4), containing 50 mM Tris and 0.2% BSA. Non-specific binding was defined using […] Melanin Concentrating Hormone (obtained from Bachem). The test compounds were added at concentrations between […] and 10 pM in 10 concentration steps. Following incubation, the reaction was stopped by filtration through GF/B filters and washed with 4×1 ml of ice-cold 50 mM Tris buffer. Microscint 20 (Packard) was added to the filters and the radioactivity measured using a Packard TopCount. Bound cpm in the presence of test compound was expressed as a fraction of the bound cpm in the absence of test compound and plotted against the concentration of compound. From this an IC50 was determined from which the pKi was calculated.

conscious CD rats = test: Effects of 11CBy antagonists on plasma glucagon and blood glucose levels (rat glucagon secretion model); format: in vivo
Description: Study of Effects of 11CBy Antagonists on Plasma Glucagon and Blood Glucose Levels

[2] = Example A4 15 mg/kg + MCH group, 5 min
[3] = Example A4 15 mg/kg + MCH group, 15 min
[4] = Example A4 15 mg/kg + MCH group, time 0

Question: COc1cc(N2C(=O)c3ccc(Oc4ccccc4)cc3C2=O)ccc1OCCN1CCCC1.Cl [Example A4, 2-[3-Methoxy-4-(2-pyrrolidin-1-yl-ethoxy)-phenyl]-5-phenoxy-isoindole-1,3-dione hydrochloride] was tested. Which “pKi in binding to the 353 form of the 11CBy receptor” value [1] did it give?
Answer: 7.7

Question: And the Blood glucose (conscious CD rats; [2])?
Answer: 6.46 ± 0.46 (7) mmol/l

Question: What about the Plasma glucagon (conscious CD rats; [2]) of the same molecule?
Answer: 30.85 ± 2.01 (7) pg/ml

Question: And the Blood glucose (conscious CD rats; [3])?
Answer: 7.71 ± 0.43 (7) mmol/l

Question: What about the Plasma glucagon (conscious CD rats; [3]) of the same molecule?
Answer: 22.87 ± 0.56 (5) pg/ml

Question: And the Blood glucose (conscious CD rats; [4])?
Answer: 5.35 ± 0.23 (7) mmol/l

Question: And the Plasma glucagon (conscious CD rats; [4])?
Answer: 23.45 ± 1.16 (7) pg/ml

Question: What about the “rise in plasma glucagon” value (conscious CD rats; Example A4 15 mg/kg iv five minutes prior to iv MCH bolus, after 5 minutes) of the same molecule?
Answer: no rise

Question: What about the “rise in plasma glucagon” value (conscious CD rats; Example A4 15 mg/kg iv five minutes prior to iv MCH bolus, after 15 min) of the same molecule?
Answer: 2.7%

Question: What about the blood glucose increase (conscious CD rats; Example A4 15 mg/kg iv five minutes prior to iv MCH bolus, time not given) of the same molecule?
Answer: 44%

Question: How did the Ki [1] turn out when COc1cc(N2C(=O)c3ccc(Nc4ccccc4)cc3C2=O)ccc1OCCN1CCCC1 [Example A5, 2-[3-Methoxy-4-(2-pyrrolidin-1-yl-ethoxy)-phenyl]-5-phenylamino-isoindole-1,3-dione] was run?
Answer: 0.01 to 0.0316 µM

Question: COc1cc(-n2nnc3cc(-c4ccccc4)ccc3c2=O)ccc1OCCN1CCCC1 [Example C5, 3-[3-Methoxy-4-(2-pyrrolidin-1-yl-ethoxy)-phenyl]-7-phenyl-3H-benzo[d][1,2,3]triazin-4-one] was tested. Which Ki [1] did it give?
Answer: 0.01 to 0.0316 µM

Question: COc1cc(-n2cnc3cc(-c4ccccc4)sc3c2=O)ccc1OCCN1CCCC1 [Example F1, 3-[3-Methoxy-4-(2-pyrrolidin-1-yl-ethoxy)-phenyl]-6-phenyl-3H-thieno[3,2-d]pyrimidin-4-one] was tested. Which Ki [1] did it give?
Answer: 0.01 to 0.0316 µM

Question: For “MCH (DFDMLRCMLGRVYRPCWQV; ends and bridges not checked; cysteine pairing not given here; UniProt P20382 147-165, looked up) [reference compound]”, which Blood glucose (conscious CD rats; MCH 50 ug/kg group, 5 min) is on record?
Answer: 6.5 ± 0.33 (7) mmol/l

Question: What about the Plasma glucagon (conscious CD rats; MCH 50 ug/kg group, 5 min) of the same molecule?
Answer: 35.16 ± 2.5 (7) pg/ml

Question: And the Blood glucose (conscious CD rats; MCH 50 ug/kg group, 15 min)?
Answer: 11.81 ± 1.27 (7) mmol/l

Question: And the Plasma glucagon (conscious CD rats; MCH 50 ug/kg group, 15 min)?
Answer: 28.67 ± 1.61 (7) pg/ml

Question: And the Blood glucose (conscious CD rats; MCH 50 ug/kg group, time 0)?
Answer: 5.87 ± 0.22 (7) mmol/l

Question: And the Plasma glucagon (conscious CD rats; MCH 50 ug/kg group, time 0)?
Answer: 23.6 ± 1.2 (6) pg/ml

Question: And the “increase in plasma glucagon from the pre-treatment value” (conscious CD rats; MCH 50 ug/kg iv alone, after 5 minutes)?
Answer: 48.7%

Question: And the “maximum rise in blood glucose concentration” value (conscious CD rats; MCH 50 ug/kg iv alone, after 15 min)?
Answer: 101%

Question: And the “increase in plasma glucagon from the pre-treatment value” (conscious CD rats; MCH 50 ug/kg iv alone, after 15 minutes)?
Answer: 21%
